Results as given in PubChem BioAssay (NCI).
Where “and” joins values, the source holds several entries; their conditions need not be identical. Equal values may be shown once.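 Interpolation was linear, between the two tested concentrations surrounding the appropriate level; five concentrations were tested over 48 hours in 96-well plates. Abbreviation: GI50, concentration required for 50% inhibition of growth. TGI denotes the concentration required for complete inhibition of growth.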

Legend:
Assay in all cases: inhibition of tumour cell growth, NCI panel, 48 h
[1] = tested on: OVCAR-4 ovarian
[2] = tested on: IGROV1 ovarian
[3] = tested on: SNB-19 CNS
[4] = tested on: HOP-62 NSCLC
[5] = tested on: CAKI-1 renal
[6] = tested on: SF-268 CNS
[7] = tested on: NCI/ADR-RES ovarian
[8] = tested on: EKVX NSCLC
[9] = tested on: DMS 114 small cell lung
[10] = tested on: M19-MEL melanoma
[11] = tested on: SNB-78 CNS
[12] = tested on: LXFL 529 NSCLC

`O=C(Nc1ccc(Cl)cc1)c1cc2cc(F)ccc2cc1O` was tested, and the GI50 [1] was 2.56 µM, the TGI [1] was 8.99 µM and the GI50 [2] was 2.28 µM. It also gave a TGI [2] greater than 100 µM, a GI50 [3] of 2.2 µM and a TGI [3] greater than 100 µM. The GI50 [4] was 2.01 µM, the TGI [4] was 7.56 µM and the GI50 [5] was 0.838 µM. The TGI [5] was 8.96 µM, the GI50 [6] was 2.46 µM and the TGI [6] was greater than 100 µM. It also gave a GI50 [7] of 2.5 µM, a TGI [7] of 8.05 µM and a GI50 [8] of 2.62 µM. For the same molecule, the TGI [8] was 22.3 µM.
With `C[C@@H](Oc1cc(NS(=O)(=O)N2CCC2)nc(SCc2cccc(F)c2F)n1)[C@@H](O)CO` the GI50 [1] was greater than 100 µM, the TGI [1] was greater than 100 µM and the GI50 [2] was greater than 100 µM. For the same molecule, the TGI [2] was greater than 100 µM, the GI50 [3] was greater than 100 µM and the TGI [3] was greater than 100 µM. The GI50 [4] was greater than 100 µM, the TGI [4] was greater than 100 µM and the GI50 [5] was greater than 100 µM. The TGI [5] was greater than 100 µM, the GI50 [6] was greater than 100 µM and the TGI [6] was greater than 100 µM. It also gave a GI50 [7] greater than 100 µM, a TGI [7] greater than 100 µM and a GI50 [8] greater than 100 µM. The TGI [8] was greater than 100 µM.
`COc1ccc(C(=O)C(Br)C(Br)C(=O)O)cc1` (configuration not stated) gave a TGI [1] greater than 100 µM, a TGI [2] greater than 100 µM and a TGI [3] greater than 100 µM. It also gave a TGI [4] greater than 100 µM, a TGI [5] greater than 100 µM and a TGI [6] greater than 100 µM. For the same molecule, the TGI [7] was greater than 100 µM and the TGI [8] was greater than 100 µM.
For `CC1Cc2c(N)nc(N3CCOCC3)nc2NC1=O` (configuration not stated), the TGI [9] was greater than 100 µM, the TGI [2] was greater than 100 µM and the TGI [3] was greater than 100 µM. It also gave a TGI [4] greater than 100 µM, a TGI [10] greater than 100 µM and a TGI [8] greater than 100 µM.
For `CCN(CC)C(=O)CNC(=O)OC(C)(C)C`, the TGI [9] was greater than 100 µM, the TGI [1] was greater than 100 µM and the TGI [2] was greater than 100 µM. It also gave a TGI [3] greater than 100 µM, a TGI [4] greater than 100 µM and a TGI [11] greater than 100 µM. The TGI [10] was greater than 100 µM, the TGI [5] was greater than 100 µM and the TGI [6] was greater than 100 µM. For the same molecule, the TGI [8] was greater than 100 µM.
In the case of `CC(C(=O)c1ccccc1)C1(O)C(=O)Nc2ccccc21` (configuration not stated), the TGI [9] is reported as greater than 100 µM, the TGI [1] is reported as greater than 100 µM and the TGI [2] is reported as greater than 100 µM. For the same molecule, the TGI [3] was greater than 100 µM, the TGI [4] was greater than 100 µM and the TGI [11] was greater than 100 µM. For the same molecule, the TGI [10] was greater than 100 µM, the TGI [5] was greater than 100 µM and the TGI [6] was greater than 100 µM. For the same molecule, the TGI [8] was greater than 100 µM.
`N=C1C(c2nc3ccccc3s2)=C(O)CN1c1ccc(Cl)cc1Cl` gave a GI50 [1] of 18.3 µM, a TGI [1] of 70.2 µM and a GI50 [2] of 19.4 µM. The TGI [2] was 46.9 µM, the GI50 [3] was 26.3 µM and the TGI [3] was 80.9 µM. For the same molecule, the GI50 [4] was 13.9 µM, the TGI [4] was 38 µM and the GI50 [5] was 3.27 µM. The TGI [5] was 20.3 µM, the GI50 [6] was 89 µM and the TGI [6] was greater than 100 µM. It also gave a GI50 [7] of 13.5 µM, a TGI [7] of 37.4 µM and a GI50 [8] of 29.9 µM. For the same molecule, the TGI [8] was 85.5 µM.
For `COC1CC2C=CC3C4OC2(/C(C)=C/C(C)C(C(C)O)OC1=O)C3C(O)C(C)C4OC(=O)c1ccc[nH]1` (configuration not stated), the TGI [1] was greater than 100 µM, the TGI [2] was greater than 100 µM and the TGI [3] was greater than 100 µM. It also gave a TGI [4] greater than 100 µM, a TGI [5] greater than 100 µM and a TGI [6] greater than 100 µM. It also gave a TGI [7] greater than 100 µM and a TGI [8] greater than 100 µM.
`O=C1/C(=C/c2ccccc2Br)COc2ccc(O)c(O)c21` showed a GI50 [1] of 2.35 µM, a TGI [1] of 10.2 µM and a GI50 [2] of 0.742 µM. The TGI [2] was 4.29 µM, the GI50 [3] was 1.69 µM and the TGI [3] was 3.92 µM. For the same molecule, the GI50 [4] was 2.29 µM, the TGI [4] was 6.54 µM and the GI50 [5] was 1.31 µM. For the same molecule, the TGI [5] was 2.74 µM, the GI50 [6] was 1.6 µM and the TGI [6] was 4.23 µM. It also gave a GI50 [7] of 1.88 µM, a TGI [7] of 11.6 µM and a GI50 [8] of 2.09 µM. For the same molecule, the TGI [8] was 5.23 µM.
`O=S(=O)(NCCCNc1cc(-c2cn(-c3ccccc3)nc2-c2cccc(O)c2)ccn1)c1cccc2ccccc12` gave a GI50 [1] of 3.06 µM, a TGI [1] greater than 100 µM and a GI50 [2] of 5.86 µM. The TGI [2] was greater than 100 µM, the GI50 [3] was 5.1 µM and the TGI [3] was greater than 100 µM. It also gave a GI50 [4] of 2.45 µM, a TGI [4] of 12.9 µM and a GI50 [5] of 3.37 µM. It also gave a TGI [5] greater than 100 µM, a GI50 [6] of 3.02 µM and a TGI [6] of 40.8 µM. For the same molecule, the GI50 [7] was 3.72 µM, the TGI [7] was greater than 100 µM and the GI50 [8] was 3.99 µM. It also gave a TGI [8] greater than 100 µM.
For `NCC1OC(n2cnc3c(=O)[nH]c(N)nc32)C(O)C1O` (configuration not stated), the TGI [1] was greater than 100 µM, the TGI [2] was greater than 100 µM and the TGI [3] was greater than 100 µM. It also gave a TGI [4] greater than 100 µM, a TGI [5] greater than 100 µM and a TGI [6] greater than 100 µM. For the same molecule, the TGI [7] was greater than 100 µM and the TGI [8] was greater than 100 µM.
For `O=C(COc1ccc(Cl)cc1)N1N=C(c2ccc([N+](=O)[O-])o2)CC1(O)c1ccccc1` (configuration not stated), the TGI [1] was 26.7 µM, the TGI [2] was 42 µM and the TGI [3] was 25.8 µM. The TGI [4] was 35.8 µM, the TGI [11] was 37.6 µM and the TGI [10] was 10.1 µM. For the same molecule, the TGI [5] was greater than 100 µM and the TGI [6] was 33.4 µM.
With `N#Cc1nn(C2OC(COC(=O)c3ccccc3)C(OC(=O)c3ccccc3)C2OC(=O)c2ccccc2)c2nc[nH]c(=O)c12` (configuration not stated) the TGI [1] was greater than 100 µM, the TGI [2] was greater than 100 µM and the TGI [3] was greater than 100 µM. The TGI [4] was greater than 100 µM, the TGI [5] was greater than 100 µM and the TGI [6] was greater than 100 µM. It also gave a TGI [7] greater than 100 µM and a TGI [8] greater than 100 µM.
With `CC(Oc1ccc(OCC2CCCCC2)cc1)C(=O)O` (configuration not stated) the TGI [9] was greater than 100 µM, the TGI [12] was greater than 100 µM and the TGI [1] was greater than 100 µM. The TGI [2] was greater than 100 µM, the TGI [11] was greater than 100 µM and the TGI [10] was greater than 100 µM. The TGI [6] was greater than 100 µM.
`O=C1CCC2=C3C4CCCCC4C(=O)C4CCCC(OC2C1)C34` (configuration not stated) gave a GI50 [1] of 1.79 µM, a TGI [1] greater than 25.1 µM and a GI50 [2] of 1.64 µM. For the same molecule, the TGI [2] was 6.15 µM, the GI50 [3] was 2.59 µM and the TGI [3] was greater than 100 µM. For the same molecule, the GI50 [4] was 2.72 µM, the TGI [4] was 32.8 µM and the GI50 [5] was 1.34 µM. It also gave a TGI [5] of 5.47 µM, a GI50 [6] of 0.471 µM and a TGI [6] greater than 21.8 µM. The GI50 [7] was 0.36 µM, the TGI [7] was 4.06 µM and the GI50 [8] was 12.6 µM. It also gave a TGI [8] greater than 100 µM.
`COc1cc2c(Nc3ccc(Br)cc3F)ncnc2cc1OCC1CCN(C)CC1` was tested, and the GI50 [1] was 2.92 µM and 5.59 µM, the TGI [1] was 14.8 µM and > 10 µM and the GI50 [2] was 0.408 µM and 0.398 µM. For the same molecule, the TGI [2] was 3.61 µM and 5.27 µM, the GI50 [3] was 4.7 µM and > 10 µM and the TGI [3] was 18.3 µM and > 10 µM. The GI50 [4] was 3.24 µM and 5.81 µM, the TGI [4] was 14.6 µM and > 10 µM and the GI50 [5] was 0.729 µM and 1.28 µM. For the same molecule, the TGI [5] was 5.24 µM and > 10 µM, the GI50 [6] was 3.24 µM and 6.18 µM and the TGI [6] was 15 µM and > 10 µM. The GI50 [7] was 5.58 µM and > 10 µM, the TGI [7] was 19.1 µM and > 10 µM and the GI50 [8] was 0.286 µM and 0.401 µM. The TGI [8] was 10.3 µM and > 10 µM.
Work on `O=C1C(Cl)=C(Nc2cccc(O)c2)C(=O)N1c1cccc(Cl)c1` yielded a GI50 [1] of 50.6 µM, a TGI [1] greater than 100 µM and a GI50 [2] of 18.3 µM. For the same molecule, the TGI [2] was 51.4 µM, the GI50 [3] was 71.5 µM and the TGI [3] was greater than 100 µM. For the same molecule, the GI50 [4] was 52.7 µM, the TGI [4] was greater than 100 µM and the GI50 [5] was 49.9 µM. The TGI [5] was greater than 100 µM, the GI50 [6] was 28.8 µM and the TGI [6] was greater than 100 µM. For the same molecule, the GI50 [7] was 64.1 µM, the TGI [7] was greater than 100 µM and the GI50 [8] was greater than 100 µM. For the same molecule, the TGI [8] was greater than 100 µM.
For `COc1c(B(O)O)cccc1-c1nc2c(F)cc3[nH]ncc3c2c2c1CCCC2`, the GI50 [1] was 5.49 µM, the TGI [1] was 58.3 µM and the GI50 [2] was 1.41 µM. For the same molecule, the TGI [2] was 23.5 µM, the GI50 [3] was 1.66 µM and the TGI [3] was 37.9 µM. The GI50 [4] was 0.133 µM, the TGI [4] was 27.1 µM and the GI50 [5] was 0.333 µM. The TGI [5] was 3.26 µM, the GI50 [6] was 2.1 µM and the TGI [6] was 18.8 µM. It also gave a GI50 [7] of 2.44 µM, a TGI [7] of 22.1 µM and a GI50 [8] of 2.61 µM. It also gave a TGI [8] of 34.3 µM.
